Assay results as given in US20120107323A1, “KINASE PROTEIN BINDING INHIBITORS” (University of Florida, priority 2009, published 2012).

Key:
[1] = tested on: KYSE140 esophageal cancer cells; test: Cell viability (MTT), KYSE140; format: cell-based
Description: (§1) Cell viability (MTT) and CFSE Proliferation assay: Cells were plated in 96-well plates and let adhere overnight. After cell treatment, cell viability was measured by 3-(4,5-dimethylthiazol-2-yl)-2,5-diphenyl tetrazolium bromide (MTT) assay (CellTiter 96® Aqueous, Promega, Madison, Wis.).
(§2) Cell viability and detachment assays: After cells were treated with siRNA transfection, cell viability was measured by 3-(4,5-dimethylthiazol2-yl)-2,5-diphenyl tetrazolium bromide (MTT) assay (CellTiter 96® AQueous, Promega, Madison, Wis.). Briefly, 20 μl of the tetrazolium compound was added to each well. The cells were then incubated at 37° C. for 1 h. The plate was read at 490 nm with a plate reader to determine the viability. In detachment assays, detached and attached cells were harvested separately and counted in a hemocytometer. The percentage of detachment was calculated by dividing the number of detached cells by the total number of cells. Apoptosis assays: After treatment, attached and detached cells were collected, counted and prepared for terminal uridine deoxynucleotidyl transferase (TUNEL) assay by utilizing an APO-BRDU kit (BD Pharmingen, San Diego, Calif.) according to the manufacturer's instructions. Stained cells were analyzed with a fluorescence-activated cell sorting-Calibur flow cytometer (BD Biosciences). Calculation of the percentage of apoptotic cells in the sample was completed with CellQuest software (BD Biosciences). Apoptotic cells were also analyzed by Hoechst staining. Hoechst 33342 (1 µg/rill) was added to the fixed cells and the specimens were mounted on glass coverslips. The slides were viewed under the Zeiss microscope for apoptotic nuclei. The percent of apoptotic cells was calculated as the ratio of apoptotic cells to total number of cells.
In addition, the effect of INT2-31 on cell viability of esophageal, pancreatic and breast cancer cell lines was analyzed and the IC50 value for each cell line was determined, as shown in Table 1. […] Similar to melanoma results, INT2-31 inhibits viability more in cancer cells compared to normal cells. Sensitivity of the cells to INT2-31 varied and directly correlated to the FAK and IGF-1R expression level of the cells.

[2] = tested on: IGF-1R+/+ and −/− MEFs; test: MTT assay on IGF-1R wildtype and null fibroblasts; format: cell-based, mouse
Description: as §1
Cell proliferation assay: Cell proliferation assay (Promega) using CellTiter 96 aqueous one solution was performed by adding a small amount of the One Solution Reagent directly to culture wells, incubating for 1-4 hours and then recording absorbance at 490 nm with a spectrophotometric plate reader. The quantity of formazan product as measured by the amount of 490 nm absorbance was directly proportional to the number of living cells in culture.
as §2

[3] = target: T1, GST-FAK-NT2 and IGF-1Rβ (Homo sapiens, UniProt Q05397); test: Pull-down assay with purified GST-FAK-NT2 and IGF-1Rβ; details: average IC50, pulldown; read-out: IC50, decrease in binding between purified GST-FAK-NT2 and IGF-1Rβ
T1 construct: host or cells: E. coli BL21 (DE3) for GST-FAK-NT2
T1 sequence (Q05397 127-243): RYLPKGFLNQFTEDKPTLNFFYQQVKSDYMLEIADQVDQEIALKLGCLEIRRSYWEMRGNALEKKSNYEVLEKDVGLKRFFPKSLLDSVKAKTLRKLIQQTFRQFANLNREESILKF
Description: Computational Docking The crystal structures of the N-terminal domain of FAK (PDB code 2AL6) (22) and the kinase domain of IGF-1R(PDB 1P40A) (23) were utilized for in silico molecular modeling of their interaction as previously described. The three-dimensional coordinates of compound NSC344553 (INT2-31), obtained from the database of the National Cancer Institute, Developmental Therapeutics Program (NCI/DTP), were docked onto the predicted interface of the amino-terminus of FAK (amino acids 127-243) with the intracytoplasmic portion of IGF-1R (21). […] 100 orientations were created for NSC344553 in the target site and were scored using the computer program grid-based scoring function. […] The intermolecular energies for all configurations of NSC 344553 in binding to FAK-NT2 were calculated as the sum of electrostatic and van der Waals energies. These energy terms were evaluated as correlation functions, which were computed efficiently with Fast Fourier Transforms. […] Bound proteins were boiled in 6× Laemmli buffer and analyzed by SDS-PAGE and Western blotting. […] The intensity of the bands in the western blots was measured with scion image analysis software program. […]

[4] = tested on: TE3 esophageal cancer cells; test: Cell viability (MTT), TE3; format: cell-based; details: TE3, 72 hours; read-out: IC50 of INT2-31, cell viability
Description: as §1
as §2, with “Calculation of the percentage of apoptotic cells in the sample was completed with CellQuest software (BD Biosciences).” left out, “Hoechst 33342 (1 µg/rill) was added to the fixed cells and the specimens were mounted on glass coverslips. The slides were viewed under the Zeiss microscope for apoptotic nuclei. The percent of apoptotic cells was calculated as the ratio of apoptotic cells to total number of cells.” left out

[5] = tested on: KYSE180 esophageal cancer cells; test: Cell viability (MTT), KYSE180; format: cell-based; details: Homo sapiens, KYSE-180; KYSE180, 72 hours; read-out: IC50 of INT2-31, cell viability
Description: as §1
as §2, with “Calculation of the percentage of apoptotic cells in the sample was completed with CellQuest software (BD Biosciences).” left out, “Hoechst 33342 (1 µg/rill) was added to the fixed cells and the specimens were mounted on glass coverslips. The slides were viewed under the Zeiss microscope for apoptotic nuclei. The percent of apoptotic cells was calculated as the ratio of apoptotic cells to total number of cells.” left out

CSc1ncnc2c1ccn2C1O[C@H](COP(=O)(O)O)[C@@H](O)[C@H]1O (stereo partly drawn) [INT2-31, 4-(Methylthio)-7-(5-O-phosphono-D-ribofuranosyl)-{7H-Pyrrolo[2,3-d]pyrimidine}]
IC50 ([1]; Homo sapiens, KYSE-140, KYSE140, 72 hours, read-out: IC50 of INT2-31, cell viability): 2.5 µM
effect of combination with 5-FU on cell viability ([1]; KYSE 140, 0.5 and 1 μM INT2-31): synergistic effects
sensitivity of cells to single-agent treatment ([1]; KYSE 140, 72 hours): sensitive
proliferation of IGF-1R+/+ fibroblast cells ([2]; 0.05 μM, 72-hour treatment): reduced the proliferation
proliferation of IGF-1R−/− cells ([2]; 0.05 μM, 72-hour treatment): no effect
effect on IGF-1R wildtype compared to null fibroblasts ([2]; MTT, p<0.05): significantly less sensitive
IC50 [3]: 3.96 µM
IC50 [4]: 5.6 µM
IC50 [5]: 19.8 µM
